# From ChEMBL document CHEMBL1201862, “PubChem BioAssay data set” (2004)
#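 In this assay, cells in 96-well plates receive the compound at five concentrations for 48 hours. Endpoints are linearly interpolated between the surrounding concentrations. The concentration for 50% growth inhibition is given as GI50.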 Activity calls are given as the source filed them. No stated cut-off is given here; in the data, active = GI50 up to about 1.1 µM and inactive = higher.
# How the values were obtained:
# Assay in all cases: inhibition of tumour cell growth, NCI panel, 48 h
# [1] = test system: DLD-1
# [2] = test system: DMS-114
# [3] = test system: DMS-273
# [4] = test system: KM-20L2
# [5] = test system: LXFL 529
# [6] = test system: M19-MEL
# [7] = test system: RXF 631
# [8] = test system: HOP-18
# [9] = test system: SNB-78
Compound,GI50 [1],GI50 [2],GI50 [3],GI50 [4],GI50 [5],GI50 [6],GI50 [7],GI50 [8],GI50 [9]
COC(=O)c1ccccc1OCc1cc(=O)oc2ccc(C)cc12,67.1 µM (inactive),89.3 µM (inactive),71.3 µM (inactive),82.2 µM (inactive),85.7 µM (inactive),> 100 µM (inactive),> 100 µM (inactive),–,–
COc1ccc(-c2onc(-c3c(C)cc(C)cc3C)c2C2=NCCCN2)cc1,78.3 µM (inactive),–,–,33.4 µM (inactive),> 100 µM (inactive),> 100 µM (inactive),44.4 µM (inactive),2.1 µM (inactive),35.1 µM (inactive)
O=C1[C@@H]2C(c3ccccc3[N+](=O)[O-])=NO[C@@H]2C(=O)N1c1ccc(Cc2ccc(N3C(=O)[C@H]4C(c5ccccc5[N+](=O)[O-])=NO[C@H]4C3=O)cc2)cc1,> 100 µM (inactive),> 100 µM (inactive),–,> 100 µM (inactive),> 100 µM (inactive),–,–,> 100 µM (inactive),> 100 µM (inactive)
COc1ccc(CC(=O)NCCc2ccc(OC)c(OC)c2OC)cc1,> 100 µM (inactive),> 100 µM (inactive),–,> 100 µM (inactive),> 100 µM (inactive),> 100 µM (inactive),> 100 µM (inactive),> 100 µM (inactive),> 100 µM (inactive)
CCOc1ccc(/N=C(/NC(=O)c2ccccc2)SC)cc1,> 100 µM (inactive),> 100 µM (inactive),> 100 µM (inactive),> 100 µM (inactive),> 100 µM (inactive),> 100 µM (inactive),–,> 100 µM (inactive),> 100 µM (inactive)
O=C1OC(c2cccc(C(F)(F)F)c2)c2ccc3ccccc3c21 (centres undefined),4.79 µM (inactive),5.57 µM (inactive),> 10 µM (inactive),> 10 µM (inactive),8.3 µM (inactive),> 10 µM (inactive),3.42 µM (inactive),> 10 µM (inactive),> 100 µM (inactive)
O=C(Nc1cc(Cl)c(Cl)cc1Cl)C(=O)C1C=CCS1(=O)=O (centres undefined),> 100 µM (inactive),> 100 µM (inactive),> 100 µM (inactive),> 100 µM (inactive),> 100 µM (inactive),> 100 µM (inactive),–,> 100 µM (inactive),11.2 µM (inactive)
O=[N+]([O-])c1ccc(/C=N/C2CCCCC2)cc1,> 100 µM (inactive),> 100 µM (inactive),> 100 µM (inactive),> 100 µM (inactive),–,> 100 µM (inactive),> 100 µM (inactive),> 100 µM (inactive),> 100 µM (inactive)
O=S1(=O)OCCOS(=O)(=O)C1(Cl)Cl,> 100 µM (inactive),> 100 µM (inactive),53.1 µM (inactive),–,> 100 µM (inactive),> 100 µM (inactive),> 100 µM (inactive),–,> 100 µM (inactive)
Cc1cc(N(CCC#N)CCC#N)ccc1/C=C1N=C(/C=C/c2ccccc2)OC(=O)N\1,> 100 µM (inactive),> 100 µM (inactive),> 100 µM (inactive),> 100 µM (inactive),> 100 µM (inactive),> 100 µM (inactive),–,–,43.3 µM (inactive)
COc1ccc(-c2nc(N)nc(-c3cc(C)ccc3O)c2Cl)cc1,39.9 µM (inactive),48.2 µM (inactive),43.7 µM (inactive),> 100 µM (inactive),33 µM (inactive),93.3 µM (inactive),> 100 µM (inactive),> 100 µM (inactive),24.3 µM (inactive)
CCO/C=C1\N=C(c2ccccc2Br)OC1=O,> 100 µM (inactive),> 100 µM (inactive),> 100 µM (inactive),> 100 µM (inactive),> 100 µM (inactive),> 100 µM (inactive),–,–,> 100 µM (inactive)
CCCCCCC(/C=N/O)C(C)(O)CCC (centres undefined),> 100 µM (inactive),73.6 µM (inactive),> 100 µM (inactive),> 100 µM (inactive),> 100 µM (inactive),> 100 µM (inactive),–,–,> 100 µM (inactive)
CCOc1ccc(NC(=O)CC2SC(Nc3ccc(C)cc3C)=NC2=O)cc1 (centres undefined),> 100 µM (inactive),–,> 100 µM (inactive),> 100 µM (inactive),66.2 µM (inactive),> 100 µM (inactive),–,–,> 100 µM (inactive)
COc1ccc(CCNCCCC2c3ccccc3-c3ccccc32)cc1OC,16.1 µM (inactive),7.48 µM (inactive),7.28 µM (inactive),3.45 µM (inactive),14.1 µM (inactive),11.1 µM (inactive),–,16.8 µM (inactive),15.7 µM (inactive)
COc1ccc(NC(=O)CCc2cc(C(C)(C)C)[nH]n2)cc1,–,–,> 100 µM (inactive),> 100 µM (inactive),> 100 µM (inactive),> 100 µM (inactive),> 100 µM (inactive),> 100 µM (inactive),> 100 µM (inactive)
COc1cc(/C=N\O[Si](C)(C)C(C)(C)C)ccc1O[Si](C)(C)C(C)(C)C,89.9 µM (inactive),28.1 µM (inactive),> 100 µM (inactive),> 100 µM (inactive),70.1 µM (inactive),74.5 µM (inactive),30.1 µM (inactive),> 100 µM (inactive),> 100 µM (inactive)
COc1cc(C(C)c2cc3c(cc2OCCCCCOc2cc4c(cc2C(C)c2cc(OC)c(OC)c(OC)c2)OCO4)OCO3)cc(OC)c1OC (centres undefined),> 100 µM (inactive),–,> 100 µM (inactive),> 100 µM (inactive),> 100 µM (inactive),> 100 µM (inactive),–,–,–
CCOC(=O)CC1(C(=O)OCC)c2[nH]c3ccccc3c2CCN1Cc1ccccc1 (centres undefined),24.4 µM (inactive),18.3 µM (inactive),17.3 µM (inactive),17.1 µM (inactive),25.4 µM (inactive),14.3 µM (inactive),–,23 µM (inactive),40.7 µM (inactive)
Cn1ccc2c(C(=O)c3ccccc3)cccc2c1=O,44.6 µM (inactive),38.5 µM (inactive),34.1 µM (inactive),–,67.9 µM (inactive),74 µM (inactive),–,–,–
CN(C)[C@@H]1C(O)=C(C(=O)NCNCCCC(=O)O)C(=O)[C@@]2(O)C(O)=C3C(=O)c4c(O)cccc4[C@@](C)(O)[C@H]3C[C@@H]12,> 100 µM (inactive),> 100 µM (inactive),> 100 µM (inactive),> 100 µM (inactive),> 100 µM (inactive),> 100 µM (inactive),–,> 100 µM (inactive),> 100 µM (inactive)
CNc1cccc(-c2cc(O)c3cc4c(cc3n2)OCO4)c1,0.181 µM (active),0.723 µM (active),0.35 µM (active),–,0.119 µM (active),0.445 µM (active),–,0.881 µM (active),0.318 µM (active)
N#C/C(=C\c1ccc2[nH]ccc2c1)C(=O)c1ccc(O)c(O)c1,> 100 µM (inactive),81.7 µM (inactive),57.3 µM (inactive),61.5 µM (inactive),> 100 µM (inactive),> 100 µM (inactive),–,71.4 µM (inactive),> 100 µM (inactive)
